Laboratory results published in the supplement of paper PMC10307832.

Columns and labels:
Assay in all cases: relative viability (nuclei count vs DMSO), 5 days (fraction); higher = more cells survive
[1] = compound: C1CC1C(=O)NC2=NNC3=C2C=CC(=C3)C4=CC(=CC=C4)C(=O)NC5CC5 [XMD13-2] + Nc1ncn([C@H]2C[C@H](O)[C@@H](CO)O2)c(=O)n1 [Decitabine] (partner 2 µM)
Outline: (§1)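 Lung cancer cell lines were pin-tool dosed in 1536-well plates on the day after seeding, with either a lone drug or a fixed anchor-drug dose plus five library-drug doses (not always all listed) in √10 steps. Nuclei were counted on 4× images after 5 days. Relative viability is the ratio of treated-well to vehicle-well nuclei counts, with each value a median of duplicate plates.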

[2] = compound: Cc1ccc(C(=O)Nc2cccc(C(F)(F)F)c2)cc1Nc1cncc(C(N)=O)c1 [ALW-II-49-7] + CC1(C)CCC(c2ccc(Cl)cc2)=C(CN2CCN(c3ccc(C(=O)NS(=O)(=O)c4ccc(N[C@H](CCN5CCOCC5)CSc5ccccc5)c(S(=O)(=O)C(F)(F)F)c4)cc3)CC2)C1 [Navitoclax] (partner 0.5 µM)
Outline: as §1

[3] = compound: Cc1ccc(C(=O)Nc2cccc(C(F)(F)F)c2)cc1Nc1cncc(C(N)=O)c1 [ALW-II-49-7] + COc1cc2c(Oc3ccc(NC(=O)C4(C(=O)Nc5ccc(F)cc5)CC4)cc3F)ccnc2cc1OCCCN1CCOCC1 [Foretinib] (partner 0.25 µM)
Outline: as §1

[4] = compound: Cc1nc(Nc2ncc(C(=O)Nc3c(C)cccc3Cl)s2)cc(N2CCN(CCO)CC2)n1 [Dasatinib] + COc1cc2c(Oc3ccc(NC(=O)C4(C(=O)Nc5ccc(F)cc5)CC4)cc3F)ccnc2cc1OCCCN1CCOCC1 [Foretinib] (partner 0.25 µM)
Outline: as §1

Row | Cell Line | relative viability ([1]; first compound 0.05 µM) | relative viability ([1]; first compound 0.1581 µM) | relative viability ([1]; first compound 0.5 µM) | relative viability ([1]; first compound 1.581 µM) | relative viability ([1]; first compound 5 µM) | relative viability ([2]; first compound 0.08 µM) | relative viability ([2]; first compound 0.253 µM) | relative viability ([2]; first compound 0.8 µM) | relative viability ([2]; first compound 2.53 µM) | relative viability ([2]; first compound 8 µM) | relative viability ([3]; first compound 0.08 µM) | relative viability ([3]; first compound 0.253 µM) | relative viability ([3]; first compound 0.8 µM) | relative viability ([3]; first compound 2.53 µM) | relative viability ([3]; first compound 8 µM) | relative viability ([4]; first compound 0.005 µM) | relative viability ([4]; first compound 0.01581 µM) | relative viability ([4]; first compound 0.05 µM) | relative viability ([4]; first compound 0.1581 µM) | relative viability ([4]; first compound 0.5 µM)
1 | NCI-H2170 | 0.507 | 0.466 | 0.506 | 0.459 | 0.43 | 0.701 | 0.568 | 0.569 | 0.655 | 0.592 | 0.908 | 1.12 | 1.01 | 0.999 | 1.01 | 0.958 | 0.927 | 0.708 | 0.678 | 0.491
2 | NCI-H1355 | 0.358 | 0.385 | 0.386 | 0.379 | 0.375 | 0.93 | 0.988 | 0.981 | 0.715 | 0.802 | 1.05 | 0.895 | 0.969 | 0.887 | 1.02 | 1.03 | 0.719 | 0.908 | 0.722 | 0.644
3 | NCI-H1648 | 0.507 |  | 0.515 | 0.475 | 0.579 |  |  |  |  |  |  |  |  |  |  |  |  |  |  | 
4 | A549 | 0.307 | 0.233 | 0.289 | 0.247 | 0.24 | 1.2 | 1.21 | 1.33 | 1.15 | 1.21 | 0.918 | 0.92 | 0.78 | 0.961 | 0.824 | 0.876 | 0.817 | 0.59 | 0.3 | 0.119
5 | SK-MES-1 | 0.429 | 0.409 | 0.373 | 0.339 | 0.455 | 1.03 | 1.34 | 1.15 | 0.961 | 0.647 | 0.834 | 0.687 | 0.737 | 0.977 | 0.831 | 1.01 | 0.73 | 0.687 | 0.482 | 0.231
